Results: patent US9464064B2, “HCV helicase inhibitors and methods of use thereof” (University of Kansas, priority 2011, dated 2016)

Target: T1, HCV NS3 helicase NS3h_1b(con1) (Hepatitis C virus genotype 1b, UniProt Q9WMX2)
T1 construct: truncated C-terminally His-tagged NS3 proteins lacking the N-terminal protease, called NS3h; His-tag (C); made in house
Assay: MBHA screen of NCI mechanistic set library at 20 μM (percent inhibition, compound interference)
Type: biochemical
Details: compounds at 20 μM; for Inh. (%) (Inhibition): calculated from Equation 1
Method in brief: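 Molecular beacon-based DNA unwinding assay; compounds screened at 20 μM in triplicate, with DMSO-only negative and 500 nM dT20 positive controls. Fluorescence (ex 643/em 670 nm) was read before and 30 min after adding ATP to 1 mM. Percent inhibition came from the change relative to DMSO controls; interference from pre-ATP fluorescence versus DMSO controls.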

[1] = assay interference calculated with Equation 2 (fluorescence vs DMSO-only controls before ATP)
[2] = MBHA with DNA substrate, assay interference calculated with Equation 2

T1 sequence (Q9WMX2 1192-1657): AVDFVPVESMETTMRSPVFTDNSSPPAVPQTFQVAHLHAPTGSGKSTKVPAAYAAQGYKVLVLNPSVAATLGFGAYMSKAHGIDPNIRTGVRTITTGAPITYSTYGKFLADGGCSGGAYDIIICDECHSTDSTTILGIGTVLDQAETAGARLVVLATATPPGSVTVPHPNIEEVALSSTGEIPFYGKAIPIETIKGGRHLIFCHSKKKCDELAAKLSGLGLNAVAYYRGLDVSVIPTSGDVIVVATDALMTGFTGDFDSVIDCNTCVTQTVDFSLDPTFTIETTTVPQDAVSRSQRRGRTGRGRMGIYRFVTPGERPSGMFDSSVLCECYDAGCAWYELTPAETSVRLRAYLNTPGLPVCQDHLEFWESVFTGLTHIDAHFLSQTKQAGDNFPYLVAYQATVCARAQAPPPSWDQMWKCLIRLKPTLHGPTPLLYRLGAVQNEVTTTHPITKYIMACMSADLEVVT

O=C1/C(=C\c2ccccc2)CN(C(=O)/C=C/c2ccccc2)C/C1=C\c1ccccc1 [Compound 638634]
Inh. (%) (Inhibition) (MBHA with a DNA substrate): −20.4% | Int.* (Ratio) (Interference) [1]: 0.86 Ratio

Cl.O=C1/C(=C\c2ccc(Cl)c(Cl)c2)CN(C(=O)CCN2CCOCC2)C/C1=C\c1ccc(Cl)c(Cl)c1 [Compound 638646]
Inh. (%) (Inhibition) (MBHA with a DNA substrate): −3.1% | Int.* (Ratio) (Interference) [1]: 0.76 Ratio

CCOC(=O)Nc1nc2ccc(Cn3cccc3)cc2[nH]1 [Compound 639754]
Int.* (Ratio) (Interference) [2]: 1.14 Ratio | Inh. (%) (Inhibition) (MBHA with DNA substrate): −18.3%

Nc1ccccc1C(=O)NC(=O)Nc1ccc(Oc2ncc(Br)cn2)c(Cl)c1 [Compound 639828]
Int.* (Ratio) (Interference) [2]: 1.05 Ratio | Inh. (%) (Inhibition) (MBHA with DNA substrate): 23.0%

CCN(CC)CCN1C(=O)c2c(c3c4cccc(Cl)c4n(C4OC(CO)C(OC)C(O)C4O)c3c3[nH]c4c(Cl)cccc4c23)C1=O (stereo not drawn) [Compound 640199]
Int.* (Ratio) (Interference) [2]: 0.70 Ratio | Inh. (%) (Inhibition) (MBHA with DNA substrate): 76.4%

Cc1nc(Nc2ccc(Cl)c(Cl)c2)sc1C(/C=C/c1ccc2c(c1)OCO2)=N/Nc1ccc([N+](=O)[O-])cc1[N+](=O)[O-] [Compound 640335]
Inh. (%) (Inhibition) (MBHA with a DNA substrate): −24.2% | Int.* (Ratio) (Interference) [1]: 0.91 Ratio

Cc1ccc(Nc2nc(C)c(C(/C=C/c3ccc(/C=C/C(=N\NC(=O)C[n+]4ccccc4)c4sc(Nc5ccc(C)cc5[N+](=O)[O-])nc4C)cc3)=N/NC(=O)C[n+]3ccccc3)s2)c([N+](=O)[O-])c1.Cl [Compound 640342]
Inh. (%) (Inhibition) (MBHA with a DNA substrate): −22.4% | Int.* (Ratio) (Interference) [1]: 0.95 Ratio

CN(C)C[C@H]1CC[C@@H](CN(C)C)C1=O.Cl.Cl [Compound 640391]
Inh. (%) (Inhibition) (MBHA with a DNA substrate): 10.6% | Int.* (Ratio) (Interference) [1]: 1.09 Ratio

OCCOc1ccc(-c2cc(-c3ccccn3)nc(-c3ccccn3)c2)cc1 [Compound 640499]
Inh. (%) (Inhibition) (MBHA with a DNA substrate): −25.9% | Int.* (Ratio) (Interference) [1]: 0.91 Ratio

CCNCCCCNCCCCNCCCCNCCCCNCC.Cl [Compound 640506]
Int.* (Ratio) (Interference) [2]: 0.91 Ratio | Inh. (%) (Inhibition) (MBHA with DNA substrate): 71.1%

Cc1nc(-c2cccnc2)sc1C(=O)/C=C/c1ccc(Cl)cc1Cl [Compound 640580]
Inh. (%) (Inhibition) (MBHA with a DNA substrate): −32.9% | Int.* (Ratio) (Interference) [1]: 1.09 Ratio

Cc1nc(-n2nc(-c3ccccc3)cc2-c2ccccc2)sc1C(=O)/C=C/c1ccc(Cl)c(Cl)c1 [Compound 640584]
Inh. (%) (Inhibition) (MBHA with a DNA substrate): 9.6% | Int.* (Ratio) (Interference) [1]: 0.90 Ratio

CC1=CC(C)(C)N=C2SC(c3ccc(N)cc3)=NN12 [Compound 640624]
Inh. (%) (Inhibition) (MBHA with a DNA substrate): −4.2% | Int.* (Ratio) (Interference) [1]: 1.11 Ratio

S=C(Nc1ccccc1)N(/N=C/C=C/c1ccccc1)c1nnc(-c2ccccc2)c(-c2ccccc2)n1 [Compound 640637]
Inh. (%) (Inhibition) (MBHA with a DNA substrate): −3.0% | Int.* (Ratio) (Interference) [1]: 0.86 Ratio

BrC(/C=N/Nc1nnc(-c2ccccc2)c(-c2ccccc2)n1)C(Br)c1ccccc1 (stereo not drawn) [Compound 640638]
Int.* (Ratio) (Interference) [2]: 0.93 Ratio | Inh. (%) (Inhibition) (MBHA with DNA substrate): −7.0%

N#Cc1ccccc1NC(=O)C(=O)C(C(=O)c1ccccc1F)C1OC(=O)c2ccccc21 (stereo not drawn) [Compound 640974]
Inh. (%) (Inhibition) (MBHA with a DNA substrate): −33.1% | Int.* (Ratio) (Interference) [1]: 0.87 Ratio

Cc1ccc(C)c(NC(=O)C(=O)C(C(=O)c2ccc3ccccc3c2)C2OC(=O)c3ccccc32)c1 (stereo not drawn) [Compound 640985]
Int.* (Ratio) (Interference) [2]: 0.97 Ratio | Inh. (%) (Inhibition) (MBHA with DNA substrate): −10.5%

Cc1ccccc1NC(=O)C(=O)C(C(=O)c1ccccc1F)C1OC(=O)c2ccccc21 (stereo not drawn) [Compound 641228]
Inh. (%) (Inhibition) (MBHA with a DNA substrate): −39.7% | Int.* (Ratio) (Interference) [1]: 0.92 Ratio

O=C(NC1=C(Cl)C(=O)c2ccccc2C1=O)C(=O)C(C(=O)c1ccc2ccccc2c1)C1OC(=O)c2ccccc21 (stereo not drawn) [Compound 641233]
Int.* (Ratio) (Interference) [2]: 0.91 Ratio | Inh. (%) (Inhibition) (MBHA with DNA substrate): −13.1%

COC(=O)c1ccccc1NC(=O)C(=O)CC(=O)c1ccccc1NC1=CC(=O)C(=O)c2ccccc21 [Compound 641240]
Int.* (Ratio) (Interference) [2]: 0.88 Ratio | Inh. (%) (Inhibition) (MBHA with DNA substrate): −14.8%

O=C(CC(=O)c1ccccc1NC1=Cc2ccccc2C(=O)C1=O)C(=O)NC1=C(Cl)C(=O)c2ccccc2C1=O [Compound 641245]
Int.* (Ratio) (Interference) [2]: 0.89 Ratio | Inh. (%) (Inhibition) (MBHA with DNA substrate): −13.7%

O=C1C=C(Nc2ccccc2C(=O)CC(=O)C(=O)Nc2ccc(Cl)c(Cl)c2)c2ccccc2C1=O [Compound 641250]
Int.* (Ratio) (Interference) [2]: 0.95 Ratio | Inh. (%) (Inhibition) (MBHA with DNA substrate): −13.6%

O=C1C=C(Nc2ccccc2C(=O)CC(=O)C(=O)Nc2ccc(Cl)cc2)c2ccccc2C1=O [Compound 641253]
Inh. (%) (Inhibition) (MBHA with a DNA substrate): −34.2% | Int.* (Ratio) (Interference) [1]: 0.95 Ratio

COc1ccc(/C(=N/O)C(c2ccc(OC)cc2)C2C(=O)Oc3ccccc32)cc1 (stereo not drawn) [Compound 641607]
Int.* (Ratio) (Interference) [2]: 1.03 Ratio | Inh. (%) (Inhibition) (MBHA with DNA substrate): 29.4%

CCc1cccc(C(C)C)c1NC(=O)/C(=N\NC(N)=O)C(C(=O)OC)c1cnc2ccccc2n1 (stereo not drawn) [Compound 642033]
Int.* (Ratio) (Interference) [2]: 0.99 Ratio | Inh. (%) (Inhibition) (MBHA with DNA substrate): 1.4%

COC(=O)C(=O)C(C(=O)C(=O)Nc1cc(C)ccc1C)c1nc2ccc(C(=O)c3ccccc3)cc2[nH]c1=O (stereo not drawn) [Compound 642040]
Inh. (%) (Inhibition) (MBHA with a DNA substrate): −3.2% | Int.* (Ratio) (Interference) [1]: 0.90 Ratio

Cc1nc(C(N)=S)sc1C(=O)CC(=O)C(=O)Nc1c(C(C)C)cccc1C(C)C [Compound 642048]
Int.* (Ratio) (Interference) [2]: 0.99 Ratio | Inh. (%) (Inhibition) (MBHA with DNA substrate): −11.3%

O=C(c1nc2ccc(Cl)cc2[nH]c1=O)C(O)c1ccc2c(c1)OCO2 (stereo not drawn) [Compound 642649]
Int.* (Ratio) (Interference) [2]: 1.05 Ratio | Inh. (%) (Inhibition) (MBHA with DNA substrate): −11.2%

COc1ccc(/C=C\c2cc(OC)c(OC)c(OC)c2)cc1OP(=O)(O)O.N [Compound 643001]
Inh. (%) (Inhibition) (MBHA with a DNA substrate): −19.4% | Int.* (Ratio) (Interference) [1]: 0.96 Ratio

N#CC(C#N)=Cc1ccc(Oc2ccccc2)cc1 [Compound 643028]
Int.* (Ratio) (Interference) [2]: 0.96 Ratio | Inh. (%) (Inhibition) (MBHA with DNA substrate): −13.0%

N#CC(C#N)=Cc1cccc(Oc2ccccc2)c1 [Compound 643031]
Int.* (Ratio) (Interference) [2]: 1.08 Ratio | Inh. (%) (Inhibition) (MBHA with DNA substrate): −0.1%

O=C1c2ccccc2C(=O)C1C(c1ccc([N+](=O)[O-])cc1)C1C(=O)c2ccccc2C1=O [Compound 643148]
Inh. (%) (Inhibition) (MBHA with a DNA substrate): −20.3% | Int.* (Ratio) (Interference) [1]: 0.98 Ratio

CN(C)c1ccc(/C=C2\CCc3ccccc3C2=O)cc1Br [Compound 643162]
Int.* (Ratio) (Interference) [2]: 1.02 Ratio | Inh. (%) (Inhibition) (MBHA with DNA substrate): −2.2%

CN(C)c1ccc(/C=C2\Cc3ccccc3C2=O)cc1Br [Compound 643163]
Int.* (Ratio) (Interference) [2]: 1.09 Ratio | Inh. (%) (Inhibition) (MBHA with DNA substrate): −12.3%

CN(C)c1ccc(/C=C/C(=O)c2ccccc2)cc1Br [Compound 643164]
Int.* (Ratio) (Interference) [2]: 0.86 Ratio | Inh. (%) (Inhibition) (MBHA with DNA substrate): 14.9%

COc1ccc(/C=C2\Cc3ccccc3C2=O)cc1OC [Compound 643174]
Int.* (Ratio) (Interference) [2]: 1.07 Ratio | Inh. (%) (Inhibition) (MBHA with DNA substrate): −9.6%

COc1ccc(/C=C2\CCc3ccccc3C2=O)cc1OC [Compound 643175]
Int.* (Ratio) (Interference) [2]: 0.93 Ratio | Inh. (%) (Inhibition) (MBHA with DNA substrate): −17.5%

N#C/C(=C\c1ccc2ccccc2c1)C(=O)c1ccccc1 [Compound 643186]
Inh. (%) (Inhibition) (MBHA with a DNA substrate): −21.0% | Int.* (Ratio) (Interference) [1]: 1.04 Ratio

CN(C)c1ccc(/C=C/C(=O)[O-])cc1.CN(C)c1ccc(/C=C/C(=O)[O-])cc1.[Cu+2] [Compound 643351]
Inh. (%) (Inhibition) (MBHA with a DNA substrate): −20.4% | Int.* (Ratio) (Interference) [1]: 0.89 Ratio

CCOC(=O)/C(=C/c1ccc(N(C)C)cc1)N(CC)CC [Compound 643774]
Int.* (Ratio) (Interference) [2]: 0.90 Ratio | Inh. (%) (Inhibition) (MBHA with DNA substrate): 14.6%

COc1ccc(/C=C/c2cc(OC)c(OC)c(OC)c2)cc1OP(=O)(O)O [Compound 643812]
Inh. (%) (Inhibition) (MBHA with a DNA substrate): −5.7% | Int.* (Ratio) (Interference) [1]: 0.91 Ratio

CCCCCCCCCCCCCCCCCCN(C)C(COC)COP(=O)([O-])OCC[N+](C)(C)C (stereo not drawn) [Compound 643826]
Inh. (%) (Inhibition) (MBHA with a DNA substrate): −3.8% | Int.* (Ratio) (Interference) [1]: 0.89 Ratio

CCCC/C=C/C=C/C=C/CCCCCCCC(=O)OCC(COC(=O)CCCCCCC/C=C/C1C=CC(CCCC)C(C(=O)O)C1C(=O)O)OC(=O)CCCCCCC/C=C/C=C/C=C/CCCC.OCCNCO (stereo not drawn) [Compound 643834]
Int.* (Ratio) (Interference) [2]: 0.88 Ratio | Inh. (%) (Inhibition) (MBHA with DNA substrate): −1.3%

CCOC(=O)C1=C(C)NC(=S)NC1c1ccccc1 (stereo not drawn) [Compound 643910]
Inh. (%) (Inhibition) (MBHA with a DNA substrate): −21.3% | Int.* (Ratio) (Interference) [1]: 1.06 Ratio

Cc1ccccc1NC(=O)C(=O)C(c1cnc2ccc([N+](=O)[O-])cc2n1)[N+](=O)[O-] (stereo not drawn) [Compound 644735]
Int.* (Ratio) (Interference) [2]: 0.94 Ratio | Inh. (%) (Inhibition) (MBHA with DNA substrate): 17.3%
